Results: US6413734B1, “Method for judging effectiveness of drug having protease inhibitory activity” (Fuji Photo Film Co., LTD, priority 1999, dated 2002)

Columns and labels:
[1] = system: protease activity of breast cancer specimen; test: Gelatin digestion by breast cancer specimen collected by paracentesis and suction, pretreated with TIMP-1 and TIMP-2, on gelatin thin membrane; assay type: cell-based, human; conditions: one breast cancer specimen suspended in buffer with 10 μg/ml of TIMP-1 and TIMP-2 together; 37° C., 16 hours
Method: Abreast cancer specimen collected by paracentesis and suction was suspended in a phosphate buffer containing 0.5% of polyvinylpyrrolidone, and adhered to a gelatin thin membrane disclosed in WO97/32035 by using a cytospin apparatus of Shandon Co., Ltd. at a speed of 400 rpm. The membrane thickness of gelatin was 7 μm. The gelatin membrane was incubated at 37° C. for 16 hours under 100% of relative humidity, and then dried in air. A solution in which Ponceau 3R was dissolved at a concentration of 0.8% in 6% trichloroacetic acid aqueous solution was used as a staining solution. The membrane was immersed in the solution at room temperature for 20 seconds for staining. […]
A breast cancer specimen collected by paracentesis and suction was suspended in a phosphate buffer containing 0.5% of polyvinylpyrrolidone and 10 μg/ml of TIMP-1 (tissue inhibitor of metalloproteinase-1) and TIMP-2, and adhered to a gelatin thin membrane disclosed in WO97/32035 by using a cytospin apparatus of Shandon Co., Ltd. at a speed of 400 rpm. […] When traces of digestion were detected in the same manner except for the treatments with TIMP-1 and TIMP-2 as a control, presence of distinct traces of digestion was observed.

[2] = system: Protease activity of breast cancer specimens; test: Protease activity measurement of frozen breast cancer slices on gelatin thin membranes containing a matrix metalloproteinase inhibitor; assay type: biochemical, human; conditions: 20 breast cancer specimens; inhibitor contained in gelatin thin membrane; 37° C., 16 hours
Method: A breast cancer specimen, which was extracted by surgical operation and frozen, was sliced at −25° C. into slices having a thickness of 4 μm by using a cryostat, and adhered to a gelatin thin membrane disclosed in WO97/32035. The thickness of gelatin was 7 μm. This gelatin membrane was incubated at 37° C. for 16 hours under 100% of relative humidity, and then dried in air. A solution obtained by mixing a solution in which Ponceau 3R was dissolved at a concentration of 0.8% in 6% trichloroacetic acid aqueous solution and ethanol at a volume ratio of 3:7 was used as a staining solution. The membrane was immersed in the solution at room temperature for 4 minutes for staining. After the membrane was washed with water for 10 minutes, the membrane was then immersed in a Mayer's hematoxylin solution for 2 minutes for nuclear staining, and further washed with water for 10 minutes and dried in air. After the drying, a Cover Aid Film (Sakura Seiki Co., Ltd.) was adhered to the membrane using xylene to enclose the breast cancer slice. The film was held on a plastic mount and observed under an optical microscope. […]
Protease activity of breast cancer specimens, which were extracted by surgical operation and then frozen, was measured in the same manner as Example 1 using gelatin thin membranes containing a matrix metalloproteinase inhibitor (1,10-phenanthroline) disclosed in WO97/32035. […]

Compound	Gelatin digestion on sites where the cancer cells were present [1]	Protease activity (traces of digestion on gelatin thin membrane) [2]
TIMP-1: tissue inhibitor of metalloproteinase-1	not observed	–
c1cnc2c(c1)ccc1cccnc12 [1,10-phenanthroline]	–	suppressed in all specimens
